Patent US6737383B1, “Herbicidal oxadiazolidines” (priority 1999, dated 2004)

Assays:
[1] = system: bedstraw; experiment: Test B pre/postemergence bedstraw; assay type: in vivo, Galium aparine
Method in brief: (§1)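 Response is a visual 0-to-10 score relative to untreated plants, where 0 means no effect and 10 means complete control, taken twelve to sixteen days after application. Treatments went onto soil at planting and onto foliage of 1- to 4-leaf plants, using a surfactant-containing non-phytotoxic solvent.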

[2] = system: blackgrass; experiment: Test B pre/postemergence blackgrass; assay type: in vivo, Alopecurus myosuroides
Method in brief: as §1

[3] = system: surinam grass; experiment: Test B pre/postemergence surinam grass; assay type: in vivo, Brachiaria decumbens
Method in brief: as §1

[4] = system: cocklebur; experiment: Test B pre/postemergence cocklebur; assay type: in vivo, Xanthium strumarium
Method in brief: as §1

[5] = system: corn; experiment: Test B pre/postemergence corn; assay type: in vivo, Zea mays
Method in brief: as §1

[6] = system: crabgrass; experiment: Test B pre/postemergence crabgrass; assay type: in vivo, Digitaria sanguinalis
Method in brief: as §1

[7] = system: giant foxtail; experiment: Test B pre/postemergence giant foxtail; assay type: in vivo, Setaria faberii
Method in brief: as §1

[8] = system: morningglory; experiment: Test B pre/postemergence morningglory; assay type: in vivo, Ipomoea hederacea
Method in brief: as §1

[9] = system: pigweed; experiment: Test B pre/postemergence pigweed; assay type: in vivo, Amaranthus retroflexus
Method in brief: as §1

[10] = system: rape; experiment: Test B pre/postemergence rape; assay type: in vivo, Brassica napus
Method in brief: as §1

[11] = system: soybean; experiment: Test B pre/postemergence soybean; assay type: in vivo, Glycine max
Method in brief: as §1

[12] = system: sugar beet; experiment: Test B pre/postemergence sugar beet; assay type: in vivo, Beta vulgaris
Method in brief: as §1

[13] = system: velvetleaf; experiment: Test B pre/postemergence velvetleaf; assay type: in vivo, Abutilon theophrasti
Method in brief: as §1

[14] = system: wheat; experiment: Test B pre/postemergence wheat; assay type: in vivo, Triticum aestivum
Method in brief: as §1

[15] = system: wild oat; experiment: Test B pre/postemergence wild oat; assay type: in vivo, Avena fatua
Method in brief: as §1

[16] = system: purple nutsedge; experiment: Test B pre/postemergence purple nutsedge; assay type: in vivo, Cyperus rotundus
Method in brief: as §1

[17] = system: rice; experiment: Test B flood test rice; assay type: in vivo, Oryza sativa
Method in brief: (§2)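 Plants were grown to the 2-leaf stage before treatment with test chemical, then held in a greenhouse for twelve to sixteen days. Injury was visually rated against untreated controls on a 0–10 scale, where 0 is no effect and 10 is complete control.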

[18] = system: smallflower flatsedge; experiment: Test B flood test smallflower flatsedge; assay type: in vivo, Cyperus difformis
Method in brief: as §2

[19] = system: duck salad; experiment: Test B flood test duck salad; assay type: in vivo, Heteranthera limosa
Method in brief: as §2

[20] = system: bamyardgrass; experiment: Test B flood test barnyardgrass; assay type: in vivo, Echinochloa crus-galli
Method in brief: as §2

[21] = Postemergence, Rate 62 g/ha, scale of 0 to 10, 0 is no effect, 10 is complete control
[22] = Postemergence, Rate 125 g/ha, scale of 0 to 10 where 0 is no effect and 10 is complete control
[23] = Postemergence, Rate 250 g/ha, scale of 0 to 10, 0 is no effect, 10 is complete control
[24] = Postemergence, Rate 500 g/ha, scale of 0 to 10 where 0 is no effect and 10 is complete control
[25] = Preemergence, Rate 62 g/ha, scale 0 to 10 (0 no effect, 10 complete control)
[26] = Preemergence, Rate 125 g/ha, scale of 0 to 10 where 0 is no effect and 10 is complete control
[27] = Preemergence, Rate 500 g/ha, scale of 0 to 10 where 0 is no effect and 10 is complete control
[28] = Rate 62 g/ha, flood test species, Pre-emergence, visual evaluation after twelve to sixteen days
[29] = Rate 125 g/ha, under heading Pre-emergence, flood test species, visual evaluation after twelve to sixteen days
[30] = Rate 250 g/ha, Pre-emergence (flood test species), scale 0 to 10, 0 is no effect, 10 is complete control
[31] = Rate 500 g/ha, Pre-emergence section of Table B, 0 to 10 scale (0 no effect, 10 complete control)

CC(C)N(C(=O)n1oc(=O)n(CC(=O)N(C)C)c1=O)c1ccccc1 [Compound 588]
3: Blackgrass plant response rating [2, 26] | Crabgrass plant response rating [6, 25] | Plant response rating, Wheat [14, 24]
7: Giant foxtail plant response rating [7, 25] | Morningglory plant response rating [8, 21] | Plant response rating, Morningglory [8, 22] | Plant response rating, Soybean [11, 24] | Plant response rating, Velvetleaf [13, 24] | Wild oats plant response rating [15, 27]
6: Blackgrass plant response rating [2, 23] | Crabgrass plant response rating [6, 23] | Crabgrass plant response rating [6, 26] | Sugarbeets plant response rating [12, 27]
10: Giant foxtail plant response rating [7, 27] | Morningglory plant response rating [8, 23] | Plant response rating, Morningglory [8, 24]
4: B. signalgrass plant response rating [3, 23] | Plant response rating, Giant foxtail [7, 22] | Plant response rating, Soybean [11, 22] | Soybean plant response rating [11, 23]
2: Plant response rating, Crabgrass [6, 22] | Wheat plant response rating [14, 26]
1: B. signalgrass plant response rating [3, 26] | Redroot pigweed plant response rating [9, 26]
0: Bedstraw plant response rating [1, 21] | Bedstraw plant response rating (0 to 10 scale) ([1]; Preemergence, Rate 250 g/ha) | Blackgrass plant response rating [2, 21] | Plant response rating, Blackgrass [2, 22] | Blackgrass plant response rating [2, 25] | B. signalgrass plant response rating [3, 21] | Plant response rating, B. signalgrass [3, 22] | B. signalgrass plant response rating [3, 25] | Cocklebur plant response rating [4, 21] | Plant response rating, Cocklebur [4, 22] | Cocklebur plant response rating [4, 23] | Plant response rating, Cocklebur [4, 24] | Cocklebur plant response rating [4, 25] | Cocklebur plant response rating [4, 26] | Cocklebur plant response rating (0 to 10 scale) ([4]; Preemergence, Rate 250 g/ha) | Cocklebur plant response rating [4, 27] | Corn plant response rating [5, 21] | Plant response rating, Corn [5, 22] | Corn plant response rating [5, 23] | Plant response rating, Corn [5, 24] | Corn plant response rating [5, 25] | Corn plant response rating [5, 26] | Corn plant response rating (0 to 10 scale) ([5]; Preemergence, Rate 250 g/ha) | Crabgrass plant response rating [6, 21] | Giant foxtail plant response rating [7, 21] | Morningglory plant response rating [8, 25] | Morningglory plant response rating [8, 26] | Morningglory plant response rating [8, 27] | Plant response rating, Redroot pigweed [9, 22] | Redroot pigweed plant response rating [9, 23] | Plant response rating, Redroot pigweed [9, 24] | Redroot pigweed plant response rating [9, 25] | Rape plant response rating [10, 21] | Plant response rating, Rape [10, 22] | Rape plant response rating [10, 23] | Plant response rating, Rape [10, 24] | Rape plant response rating [10, 25] | Rape plant response rating [10, 26] | Rape plant response rating [10, 27] | Soybean plant response rating [11, 25] | Soybean plant response rating [11, 26] | Plant response rating, Sugarbeets [12, 22] | Sugarbeets plant response rating [12, 23] | Plant response rating, Sugarbeets [12, 24] | Sugarbeets plant response rating [12, 25] | Sugarbeets plant response rating [12, 26] | Plant response rating, Velvetleaf [13, 22] | Velvetleaf plant response rating [13, 23] | Velvetleaf plant response rating [13, 25] | Velvetleaf plant response rating [13, 26] | Plant response rating, Wheat [14, 22] | Wheat plant response rating [14, 23] | Wheat plant response rating [14, 25] | Plant response rating, Wild oats [15, 22] | Wild oats plant response rating [15, 23] | Plant response rating, Wild oats [15, 24] | Wild oats plant response rating [15, 25] | Wild oats plant response rating [15, 26] | Nutsedge plant response rating [16, 21] | Plant response rating, Nutsedge [16, 22] | Plant response rating, Nutsedge [16, 24] | Nutsedge plant response rating [16, 25] | Nutsedge plant response rating [16, 26] | Nutsedge plant response rating [16, 27] | Plant response rating, Rice (0 to 10 scale, 0 is no effect, 10 is complete control) [17, 28] | Rice plant response rating (0 to 10 scale, 0 is no effect, 10 is complete control) [17, 29] | Rice plant response rating [17, 30] | Rice plant response rating [17, 31] | Plant response rating, S. Flatsedge (0 to 10 scale, 0 is no effect, 10 is complete control) [18, 28] | S. Flatsedge plant response rating (0 to 10 scale, 0 is no effect, 10 is complete control) [18, 29] | S. Flatsedge plant response rating [18, 30] | S. Flatsedge plant response rating [18, 31] | Plant response rating, Ducksalad (0 to 10 scale, 0 is no effect, 10 is complete control) [19, 28] | Ducksalad plant response rating (0 to 10 scale, 0 is no effect, 10 is complete control) [19, 29] | Ducksalad plant response rating [19, 30] | Ducksalad plant response rating [19, 31] | Plant response rating, Barnyardgrass (0 to 10 scale, 0 is no effect, 10 is complete control) [20, 28] | Barnyardgrass plant response rating (0 to 10 scale, 0 is no effect, 10 is complete control) [20, 29] | Barnyardgrass plant response rating [20, 30] | Barnyardgrass plant response rating [20, 31]
9: Crabgrass plant response rating [6, 27] | Redroot pigweed plant response rating [9, 27]
8: Plant response rating, Blackgrass [2, 24] | Blackgrass plant response rating [2, 27] | Plant response rating, B. signalgrass [3, 24] | B. signalgrass plant response rating [3, 27] | Giant foxtail plant response rating [7, 23] | Plant response rating, Giant foxtail [7, 24] | Giant foxtail plant response rating [7, 26] | Wheat plant response rating [14, 27]
5: Blackgrass plant response rating (0 to 10 scale) ([2]; Preemergence, Rate 250 g/ha) | B. signalgrass plant response rating (0 to 10 scale, 0 is no effect, 10 is complete control) ([3]; Preemergence, Rate 250 g/ha) | Corn plant response rating [5, 27] | Soybean plant response rating [11, 27] | Velvetleaf plant response rating [13, 27]
